Measurements taken from patent publication US4198512A, “1-Oxo-1,2-dihydroisoquinoline derivatives” (Yamanouchi Pharmaceutical Co., Ltd., priority 1977, dated 1980).

Legend:
[1] = Whittle's method, writhing (acetic acid); assay type: in vivo, Male ICR-Mice; settings: 50 mg/kg P.O., mice; 0.6% acetic acid i.p.
Description: (§1) Male ICR-Mice (weighting 25-35 g.), one group being 12 mice, fasted overnight were used in this test. The sample was orally administered, and 20 minutes after, 5 ml./Kg. of 0.4% Evance blue was injected intravenously and 10 minutes thereafter, 10 ml./Kg. of 0.6% acetic acid was injected intraperitoneally. The number of writhings after 20 minutes following the administration of acetic acid was recorded and after an additional 10 minutes, the mice were killed by dislocation of the neck, the dye leaked in the abdominal cavity was washed out with 5 ml. of 0.9% saline to make the total amount 10 ml., and thereafter furs, blood corpuscles, etc., intermingled were removed by centrifugal separation at 3,000 r.p.m. for 5 minutes. Furthermore, to prevent turbidity caused by protein, 0.1 ml. of an aqueous 0.1 normal sodium hydroxide was added and then the absorbance at 590 nm was measured. The inhibition ratio of the sample administered rat groups to control groups was calculated.

[2] = 50 mg/kg
Description: as §1

[3] = Carrageenin-induced edema; assay type: in vivo, Male Wister rats; settings: oral, 1 h before carrageenin, rat hind paw, 3 h
Description: (a) Carrageenin-induced edema
Male Wister rats (weighing 130-170 g.), one group being 6 rats, fasted overnight were used. According to Winter's method [Proc. Soc. Exp. Biol. Med., 111,544 (1962)], 0.1 ml. of 1% carrageenin [Iwai Kagaku Yakuhin K.K. Seakem] suspension in 0.9% saline was injected into the planter tissue of the left hind paw. After 3 hours, each rat was sacrificed by chloroform and the hind paw was cut and weighed immediately. By using the value obtained by subtracting the weight of the untreated hind paw from the weight of the hind paw having injected therein the carrageenin as the weight of edema, the inhibitory ratio of the sample administered rat groups to control groups was calculated. The sample was orally administered before one hour of the injection of Carrageenin.
In addition, the test samples used in the aforesaid tests (a) and (b) were prepared by suspending the test compounds in an aqueous 0.5% methyl cellulose solutions.

| Structure (SMILES) | Inhibition (%) Writhing [1] [%] | Inhibition (%) Permeability [2] [%] | Inhibition (Carrageenin-induced edema) ([3]; 100 mg/kg) [%] | Inhibition (Carrageenin-induced edema) ([3]; 50 mg/kg) [%] |
| --- | --- | --- | --- | --- |
| Cc1c(N(C)C)c(=O)n(-c2ccccc2)n1C [Aminopyrine, reference compound] | 58.1 | 41.7 | – | – |
| CSc1cc2ccccc2c(=O)n1C [Ex. 1, 2-methyl-3-methylthio-1-oxo-1,2-dihydroisoquinoline] | – | – | 57.3 | – |
| CCn1c(SC)cc2ccccc2c1=O [Ex. 2, 2-ethyl-3-methylthio-1-oxo-1,2-dihydroisoquinoline] | – | – | – | 38.5 |
| Cn1c([S+](C)[O-])cc2ccccc2c1=O (centres unmarked) [Ex. 4, 2-methyl-3-methylsulfinyl-1-oxo-1,2-dihydroisoquinoline] | 39.7 | 42.8 | 68.2 | 55.8 |
| Cn1c(S(C)(=O)=O)cc2ccccc2c1=O [Ex. 5, 2-methyl-3-methylsulfonyl-1-oxo-1,2-dihydroisoquinoline] | 45.8 | 47.1 | 68.1 | 50.7 |
| CCCCC1C(=O)N(c2ccccc2)N(c2ccccc2)C1=O [Phenyl butazone, reference compound] | – | – | 51.2 | 44.5 |
